Results on 40 compounds are retold here after patent EP2818472A1, “Imidazo[4,5-c]pyridine and pyrrolo[3,2-c]pyridine compounds as G-protein-coupled receptor kinase 5 (GRK5) modulators” (Max-Planck-Gesellschaft zur Förderung der Wissenschaften …, priority 2013, dated 2014).

The experiment relates to beta-TC6 cells. Briefly: Insulin HTRF assay (relative activity Ar) in beta-TC6 cells. It is filed as cell-based, mouse. Particulars: Mus musculus, Beta-TC6, 4 h, insulin HTRF, supernatant of beta-TC6 cells, incubation with test compound at 37°C for 2, 3, 4h; read-out: Ar (relative activity). The method, boiled down:
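beta-TC6 cells (15k/well, seeded 24 or 48 h) washed, then exposed to compound in induction buffer (0.5% DMSO final) for 2, 3 or 4 h at 37°C.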
For the compound `CC(=O)Nc1ccc(Nc2cc3c(cn2)ncn3Cc2ccccc2)cc1` [Compound 694, N-[4-[(1-benzylimidazo[4,5-c]pyridin-6-yl)amino]phenyl]acetamide], the Emax is 50 to 100%. The same measure for `COc1cc(Nc2cc3c(cn2)nc(-c2ccco2)n3C)cc(OC)c1OC` [Compound 707, 2-(2-furyl)-1-methyl-N-(3,4,5-trimethoxyphenyl)imidazo[4,5-c]pyridin-6-amine]: over 100%; for `COc1ccc(Nc2nccc3c2cc(-c2ccsc2)n3C)cc1O` [Compound 284, 2-methoxy-5-[[1-methyl-2-(3-thienyl)pyrrolo[3,2-c]pyridin-4-yl]amino]phenol]: 50 to 100%. The same measure for `c1ccc(CCNc2nccc3[nH]c(-c4ccncc4)nc23)cc1` [Compound 434, N-phenethyl-2-(4-pyridyl)-1H-imidazo[4,5-c]pyridin-4-amine]: 30 to 50%; for `CN(C)C(=O)c1ccc(Nc2cc3[nH]c(-c4ccccc4)cc3cn2)cc1` [Compound 182, N,N-dimethyl-4-[(2-phenyl-1H-pyrrolo[3,2-c]pyridin-6-yl)amino]benzamide]: 50 to 100%.

As to `Cn1c(-c2cccnc2)cc2cnc(Nc3ccccc3)cc21` [Compound 88, 1-methyl-N-phenyl-2-(3-pyridyl)pyrrolo[3,2-c]pyridin-6-amine], the Emax fell in the range of 30 to 50%.

As for `COc1ccc(Nc2cc3c(cn2)cc(-c2cnn(C)c2)n3C)cn1` [Compound 130, N-(6-methoxy-3-pyridyl)-1-methyl-2-(1-methylpyrazol-4-yl)pyrrolo[3,2-c]pyridin-6-amine], the Emax was over 100%. The same measure for `c1ccc(Nc2nccc3[nH]c(-c4ccsc4)cc23)nc1` [Compound 260, N-(2-pyridyl)-2-(3-thienyl)-1H-pyrrolo[3,2-c]pyridin-4-amine]: 50 to 100%; for `CC(=O)c1cccc(Nc2nccc3c2cc(-c2ccsc2)n3C)c1` [Compound 288, 1-[3-[[1-methyl-2-(3-thienyl)pyrrolo[3,2-c]pyridin-4-yl]amino]phenyl]ethanone]: 30 to 50%; for `CNc1nc2cnc(-c3cccc(C(=O)NCCN(C)C)c3)cc2n1Cc1ccccc1` [Compound 793, 3-[1-benzyl-2-(methylamino)imidazo[4,5-c]pyridin-6-yl]-N-(2-dimethylaminoethyl)benzamide]: 0 to 30%. The same measure for `CNc1nc2cnc(Nc3ccc(OC)cc3OC)cc2n1-c1cccc(C(F)(F)F)c1` [Compound 543, N6-(2,4-dimethoxyphenyl)-N2-methyl-1-[3-(trifluoromethyl)phenyl]imidazo[4,5-c]pyridine-2,6-diamine]: 30 to 50%. In the case of `COc1cc(Nc2nc3cnc(-c4cccc(F)c4)cc3n2C)cc(OC)c1OC` [Compound 814, 6-(3-fluorophenyl)-1-methyl-N-(3,4,5-trimethoxyphenyl)imidazo[4,5-c]pyridin-2-amine] it was 0 to 30%. Regarding `CC(=O)c1cccc(Nc2cc3c(cn2)nc(NCc2ccccc2)n3C)c1` [Compound 628, 1-[3-[[2-(benzylamino)-1-methyl-imidazo[4,5-c]pyridin-6-yl]amino]phenyl]ethanone], the Emax is 30 to 50%. In the case of `CNc1nc2cnc(Nc3ccc(OC)c(O)c3)cc2n1-c1cccc(C(F)(F)F)c1` [Compound 551, 2-methoxy-5-[[2-(methylamino)-1-[3-(trifluoromethyl)phenyl]imidazo[4,5-c]pyridin-6-yl]amino]phenol] it was 50 to 100%. The same measure for `Oc1cccc(Nc2nccc3[nH]c(-c4ccc5c(c4)OCCO5)nc23)c1` [Compound 418, 3-[[2-(2,3-dihydro-1,4-benzodioxin-6-yl)-1H-imidazo[4,5-c]pyridin-4-yl]amino]phenol]: 50 to 100%; for `COc1ccc(CNc2nc3cnc(Nc4ccc(NC(C)=O)cc4)cc3n2C)cc1OC` [Compound 600, N-[4-[[2-[(3,4-dimethoxyphenyl)methylamino]-1-methyl-imidazo[4,5-c]pyridin-6-yl]amino]phenyl]acetamide]: 50 to 100%; for `Cn1c(Nc2ccccc2)nc2cnc(Nc3ccncc3)cc21` [Compound 636, 1-methyl-N2-phenyl-N6-(4-pyridyl)imidazo[4,5-c]pyridine-2,6-diamine]: 50 to 100%. In the case of `Cn1c(NCc2ccccc2)nc2cnc(-c3cncnc3)cc21` [Compound 623, N-benzyl-1-methyl-6-pyrimidin-5-yl-imidazo[4,5-c]pyridin-2-amine], the Emax was in the range of 30 to 50%. Turning to `COc1ccc(-c2nc3c(NCCc4ccccn4)nccc3[nH]2)cc1` [Compound 394, 2-(4-methoxyphenyl)-N-[2-(2-pyridyl)ethyl]-1H-imidazo[4,5-c]pyridin-4-amine], the Emax was 30 to 50%. `CNc1nc2cnc(Nc3cccc(OC)c3)cc2n1CCN1CCOCC1` [Compound 552, N6-(3-methoxyphenyl)-N2-methyl-1-(2-morpholinoethyl)imidazo[4,5-c]pyridine-2,6-diamine]: the Emax was in the range of 30 to 50%. In the case of `COc1ccc(Nc2cc3c(cn2)cc(-c2ccc(C(=O)N(C)C)cc2)n3C)cc1OC` [Compound 46, 4-[6-(3,4-dimethoxyanilino)-1-methyl-pyrrolo[3,2-c]pyridin-2-yl]-N,N-dimethyl-benzamide] it was 50 to 100%; in that of `COc1ccc(CNc2nc3cnc(Nc4cccc(S(C)(=O)=O)c4)cc3n2C)cc1OC` [Compound 608, N2-[(3,4-dimethoxyphenyl)methyl]-1-methyl-N6-(3-methylsulfonylphenyl)imidazo[4,5-c]pyridine-2,6-diamine], 30 to 50%; in that of `FC(F)(F)Oc1cccc(-c2nc3c(N4CCOCC4)nccc3[nH]2)c1` [Compound 446, 4-[2-[3-(trifluoromethoxy)phenyl]-1H-imidazo[4,5-c]pyridin-4-yl]morpholine], 30 to 50%. The same measure for `CNc1nc2cnc(Nc3ccc4c(c3)OCO4)cc2n1-c1ccccc1` [Compound 512, N6-(1,3-benzodioxol-5-yl)-N2-methyl-1-phenyl-imidazo[4,5-c]pyridine-2,6-diamine]: 50 to 100%; for `CC(C)[C@H](CO)Nc1nccc2[nH]c(-c3ccncc3)nc12` [Compound 429, (2R)-3-methyl-2-[[2-(4-pyridyl)-1H-imidazo[4,5-c]pyridin-4-yl]amino]butan-1-ol]: 0 to 30%. On to `COc1cccc(Nc2nccc3[nH]c(-c4cccc(OC)c4F)nc23)c1` [Compound 468, 2-(2-fluoro-3-methoxy-phenyl)-N-(3-methoxyphenyl)-1H-imidazo[4,5-c]pyridin-4-amine], for which the Emax lay within 30 to 50%. In the case of `Cn1c(NCC2CC2)nc2cnc(-c3ccc(N4CCNCC4)cc3)cc21` [Compound 597, N-(cyclopropylmethyl)-1-methyl-6-(4-piperazin-1-ylphenyl)imidazo[4,5-c]pyridin-2-amine] it was 50 to 100%. Turning to `COc1ncccc1-c1cc2c(cn1)nc(NCC1CCCO1)n2C` (stereo not shown) [Compound 644, 6-(2-methoxy-3-pyridyl)-1-methyl-N-(tetrahydrofuran-2-ylmethyl)imidazo[4,5-c]pyridin-2-amine], the Emax was 50 to 100%. The same measure for `CNc1nc2cnc(Nc3cccc(N(C)C)c3)cc2n1CC1CC1` [Compound 573, 1-(cyclopropylmethyl)-N6-[3-(dimethylamino)phenyl]-N2-methyl-imidazo[4,5-c]pyridine-2,6-diamine]: 30 to 50%. Take `Cn1cc(-c2cc3cnc(Nc4ccncn4)cc3n2C)cn1` [Compound 147, 1-methyl-2-(1-methylpyrazol-4-yl)-N-pyrimidin-4-yl-pyrrolo[3,2-c]pyridin-6-amine]: the Emax fell in the range of 50 to 100%. In the case of `CNc1nc2cnc(Nc3ccc(OC)cc3OC)cc2n1-c1cc(OC)c(OC)c(OC)c1` [Compound 486, N6-(2,4-dimethoxyphenyl)-N2-methyl-1-(3,4,5-trimethoxyphenyl)imidazo[4,5-c]pyridine-2,6-diamine] it was 30 to 50%.

On to `COc1cccc(-c2nc3c(Nc4cc(OC)c(OC)c(OC)c4)nccc3[nH]2)c1F` [Compound 467, 2-(2-fluoro-3-methoxy-phenyl)-N-(3,4,5-trimethoxyphenyl)-1H-imidazo[4,5-c]pyridin-4-amine], for which the Emax is over 100%. In the case of `CNc1nc2cnc(Nc3cccc(Cl)c3)cc2n1Cc1ccc(OC)c(OC)c1` [Compound 666, N6-(3-chlorophenyl)-1-[(3,4-dimethoxyphenyl)methyl]-N2-methyl-imidazo[4,5-c]pyridine-2,6-diamine] it was 30 to 50%; in that of `c1ccc(-c2nc3c(NCCc4ccccn4)nccc3[nH]2)cc1` [Compound 332, 2-phenyl-N-[2-(2-pyridyl)ethyl]-1H-imidazo[4,5-c]pyridin-4-amine], 30 to 50%. Turning to `CS(=O)(=O)c1cccc(Nc2nccc3[nH]c(-c4ccc5c(c4)OCCO5)nc23)c1` [Compound 417, 2-(2,3-dihydro-1,4-benzodioxin-6-yl)-N-(3-methylsulfonylphenyl)-1H-imidazo[4,5-c]pyridin-4-amine], the Emax lay in the range of 30 to 50%. The same measure for `COc1ccc(-c2nc3c(N4CCOCC4)nccc3[nH]2)cc1` [Compound 399, 4-[2-(4-methoxyphenyl)-1H-imidazo[4,5-c]pyridin-4-yl]morpholine]: 30 to 50%; for `Nc1cccc(-c2cc3cnc(Nc4cccnc4)cc3[nH]2)c1` [Compound 2, 2-(3-aminophenyl)-N-(3-pyridyl)-1H-pyrrolo[3,2-c]pyridin-6-amine]: 30 to 50%. `COc1ccc(-c2cc3c(cn2)nc(NCc2ccccc2)n3C)cc1` [Compound 839, N-benzyl-6-(4-methoxyphenyl)-1-methyl-imidazo[4,5-c]pyridin-2-amine]: the Emax fell in the range of 30 to 50%. The same measure for `CNc1nc2cnc(Nc3cccnc3)cc2n1-c1ccccc1` [Compound 507, N2-methyl-1-phenyl-N6-(3-pyridyl)imidazo[4,5-c]pyridine-2,6-diamine]: 30 to 50%; for `Cc1ccc(-c2nc3c(Nc4ccccc4)nccc3[nH]2)cc1` [Compound 380, N-phenyl-2-(p-tolyl)-1H-imidazo[4,5-c]pyridin-4-amine]: 30 to 50%.
